Test results from patent publication US12281095B2, “Pesticidally active diazine-amide compounds” (SYNGENTA CROP PROTECTION AG, priority 2019, dated 2025).

How the values were obtained:
Type in all cases: in vivo
[1] = system: Myzus persicae (Green Peach Aphid); experiment: Example B8: Myzus persicae (Green Peach Aphid): Intrinsic Activity; details: 120 h, test rate of 12 ppm, sucrose solution, 5 days after infestation
Description: Example B8: Myzus persicae (Green Peach Aphid): Intrinsic Activity
Test compounds prepared from 10′000 ppm DMSO stock solutions were applied by pipette into 24-well microtiter plates and mixed with sucrose solution. The plates were closed with a stretched Parafilm. A plastic stencil with 24 holes was placed onto the plate and infested pea seedlings were placed directly on the Parafilm. The infested plate was closed with a gel blotting paper and another plastic stencil and then turned upside down. The samples were assessed for mortality 5 days after infestation.

[2] = system: Euschistus heros (Neotropical Brown Stink Bug); experiment: Example B2: Euschistus heros (Neotropical Brown Stink Bug), sprayed soybean leaves; details: 120 h, application rate of 200 ppm, N2 nymphs, 5 days after infestation, read-out: control in at least one of the two categories (mortality or growth inhibition)
Method: Example B2: Euschistus heros (Neotropical Brown Stink Bug)
Soybean leaves on agar in 24-well microtiter plates were sprayed with aqueous test solutions prepared from 10′000 ppm DMSO stock solutions. After drying the leaves were infested with N2 nymphs. The samples were assessed for mortality and growth inhibition in comparison to untreated samples 5 days after infestation.

[3] = system: Plutella xylostella (Diamond Back Moth); experiment: Example B5: Plutella xylostella (Diamond Back Moth), artificial diet, 24-well; details: 192 h, application rate of 200 ppm, eggs, 8 days after infestation, read-out: control in at least one of the two categories (mortality or growth inhibition)
Method: Example B5: Plutella xylostella (Diamond Back Moth)
24-well microtiter plates with artificial diet were treated with aqueous test solutions prepared from 10′000 ppm DMSO stock solutions by pipetting. After drying, Plutella eggs were pipetted through a plastic stencil onto a gel blotting paper and the plate was closed with it. The samples were assessed for mortality and growth inhibition in comparison to untreated samples 8 days after infestation.

[4] = system: Spodoptera littoralis (Egyptian Cotton Leaf Worm); experiment: Example B9: Spodoptera littoralis (Egyptian Cotton Leaf Worm), sprayed cotton leaf discs; details: foliar, 72 h, application rate of 200 ppm, L1 larvae, 3 days after infestation, read-out: control in at least one of the three categories (mortality, anti-feedant or growth inhibition)
[5] = system: Chilo suppressalis (Striped Rice Stemborer); experiment: Example B4: Chilo suppressalis (Striped Rice Stemborer), artificial diet; details: 144 h, application rate of 200 ppm, L2 larvae, 6 days after infestation, read-out: control in at least one of the three categories (mortality, anti-feedant or growth inhibition)
Method: Example B4: Chilo suppressalis (Striped Rice Stemborer)
24-well microtiter plates with artificial diet were treated with aqueous test solutions prepared from 10′000 ppm DMSO stock solutions by pipetting. After drying, the plates were infested with L2 larvae (6-8 per well). The samples were assessed for mortality, anti-feeding effect, and growth inhibition in comparison to untreated samples 6 days after infestation. Control of Chilo suppressalis by a test sample is given when at least one of the categories mortality, anti-feedant effect, and growth inhibition is higher than the untreated sample.

[6] = system: Diabrotica balteata (Corn Root Worm); experiment: Example B1: Diabrotica balteata (Corn Root Worm), sprayed maize sprouts; details: 96 h, application rate of 200 ppm, L2 larvae, 4 days after infestation, read-out: control in at least one of the two categories (mortality or growth inhibition)
Method: Example B1: Diabrotica balteata (Corn Root Worm)
Maize sprouts placed onto an agar layer in 24-well microtiter plates were treated with aqueous test solutions prepared from 10′000 ppm DMSO stock solutions by spraying. After drying, the plates were infested with L2 larvae (6 to 10 per well). The samples were assessed for mortality and growth inhibition in comparison to untreated samples 4 days after infestation.

[7] = system: Plutella xylostella (Diamondback Moth); experiment: Example B13: Plutella xylostella (Diamondback Moth), artificial diet, 96-well; details: 216 h, application rate of 500 ppm, eggs/L1 larvae, 9 days after infestation
Method: Example B13: Plutella xylostella (Diamondback Moth)
96-well microtiter plates containing artificial diet were treated with aqueous test solutions, prepared from 10′000 ppm DMSO stock solutions, by a liquid handling robot. After drying, eggs (˜30 per well) were infested onto a netted lid which was suspended above the diet. The eggs hatch and L1 larvae move down to the diet. The samples were assessed for mortality 9 days after infestation.

[8] = system: Myzus persicae (Green Peach Aphid); experiment: Example B12: Myzus persicae (Green Peach Aphid), 96-well sucrose solution; details: 120 h, application rate of 50 ppm, 5 days after infestation
Description: Example B12: Myzus persicae (Green Peach Aphid)
Test compounds prepared from 10′000 ppm DMSO stock solutions were applied by a liquid handling robot into 96-well microtiter plates and mixed with a sucrose solution. Parafilm was stretched over the 96-well microtiter plate and a plastic stencil with 96 holes was placed onto the plate. Aphids were sieved into the wells directly onto the Parafilm. The infested plates were closed with a gel blotting card and a second plastic stencil and then turned upside down. The samples were assessed for mortality 5 days after infestation.

[9] = system: Spodoptera littoralis (Egyptian Cotton Leaf Worm); experiment: Example B10: Spodoptera littoralis (Egyptian Cotton Leaf Worm), uptake by lettuce roots from agar; details: 144 h, test rate of 12.5 ppm, compound absorbed by lettuce roots, eggs, 6 days after infestation, read-out: control in at least one of the three categories (mortality, anti-feeding, or growth inhibition)
Description: Example B10: Spodoptera littoralis (Egyptian Cotton Leaf Worm)
Test compounds were applied by pipette from 10′000 ppm DMSO stock solutions into 24-well plates and mixed with agar. Lettuce seeds were placed onto the agar and the multi well plate was closed by another plate which contained also agar. After 7 days the compound was absorbed by the roots and the lettuce grew into the lid plate. The lettuce leaves were then cut off into the lid plate. Spodoptera eggs were pipetted through a plastic stencil onto a humid gel blotting paper and the lid plate was closed with it. The samples were assessed for mortality, anti-feedant effect and growth inhibition in comparison to untreated samples 6 days after infestation.

CC(NC(=O)c1cc(C(F)(F)F)cc(C(C)(C)C#N)c1)c1nccnc1-c1ncc(OCC(F)(F)F)cn1 (stereo not shown) [P47, 3-(1-cyano-1-methyl-ethyl)-N-[1-[3-[5-(2,2,2-trifluoroethoxy)pyrimidin-2-yl]pyrazin-2-yl]ethyl]-5-(trifluoromethyl)benzamide]
≥ 80%: mortality at 12 ppm [1] | percent control (mortality or growth inhibition) at 200 ppm [2] | percent control (mortality or growth inhibition) at 200 ppm [3] | percent control (mortality, anti-feedant effect or growth inhibition) at 200 ppm [4] | percent control (mortality, anti-feedant effect or growth inhibition) at 200 ppm [5] | percent control (mortality or growth inhibition) at 200 ppm [6]

CC(NC(=O)c1cc(C(F)(F)F)cc(C2(C#N)CC2)c1)c1nccnc1-c1ncc(OC(F)F)cn1 (stereo not shown) [P32, 3-(1-cyanocyclopropyl)-N-[1-[3-[5-(difluoromethoxy)pyrimidin-2-yl]pyrazin-2-yl]ethyl]-5-(trifluoromethyl)benzamide]
≥ 80%: mortality at 12 ppm [1] | percent control (mortality or growth inhibition) at 200 ppm [2] | percent control (mortality or growth inhibition) at 200 ppm [3] | mortality at 500 ppm [7] | percent control (mortality, anti-feedant effect or growth inhibition) at 200 ppm [4] | mortality at 50 ppm [8] | percent control (mortality, anti-feedant effect or growth inhibition) at 200 ppm [5] | percent control (mortality, anti-feeding or growth inhibition) at 12.5 ppm [9] | percent control (mortality or growth inhibition) at 200 ppm [6]

CC(NC(=O)c1cc(C(F)(F)F)cc(C(F)(F)C2CC2)c1)c1nccnc1-c1ncc(OC(F)F)cn1 (stereo not shown) [P29, 3-[cyclopropyl(difluoro)methyl]-N-[1-[3-[5-(difluoromethoxy)pyrimidin-2-yl]pyrazin-2-yl]ethyl]-5-(trifluoromethyl)benzamide]
≥ 80%: percent control (mortality or growth inhibition) at 200 ppm [2] | percent control (mortality or growth inhibition) at 200 ppm [3] | mortality at 500 ppm [7] | percent control (mortality, anti-feedant effect or growth inhibition) at 200 ppm [4] | percent control (mortality, anti-feedant effect or growth inhibition) at 200 ppm [5] | percent control (mortality or growth inhibition) at 200 ppm [6]

CC(NC(=O)c1cc(C(F)(F)F)cc(S(=O)(=O)C(F)(F)F)c1)c1nccnc1-c1ncc(OCC(F)F)cn1 (stereo not shown) [P28, N-[1-[3-[5-(2,2-difluoroethoxy)pyrimidin-2-yl]pyrazin-2-yl]ethyl]-3-(trifluoromethyl)-5-(trifluoromethylsulfonyl)benzamide]
≥ 80%: percent control (mortality or growth inhibition) at 200 ppm [2] | percent control (mortality or growth inhibition) at 200 ppm [3] | mortality at 500 ppm [7] | percent control (mortality, anti-feedant effect or growth inhibition) at 200 ppm [4] | percent control (mortality, anti-feedant effect or growth inhibition) at 200 ppm [5] | percent control (mortality or growth inhibition) at 200 ppm [6]

CC(NC(=O)c1cc(C(F)(F)F)cc(C2(C#N)CC2)c1)c1nccnc1-c1ncc(OCC(F)(F)F)cn1 (stereo not shown) [P2, 3-(1-cyanocyclopropyl)-N-[1-[3-[5-(2,2,2-trifluoroethoxy)pyrimidin-2-yl]pyrazin-2-yl]ethyl]-5-(trifluoromethyl)benzamide]
≥ 80%: mortality at 12 ppm [1] | percent control (mortality or growth inhibition) at 200 ppm [2] | percent control (mortality or growth inhibition) at 200 ppm [3] | percent control (mortality, anti-feedant effect or growth inhibition) at 200 ppm [4] | percent control (mortality, anti-feedant effect or growth inhibition) at 200 ppm [5] | percent control (mortality or growth inhibition) at 200 ppm [6]

CC(NC(=O)c1cc(C(F)(F)F)cc(C2(C#N)CC2)c1)c1nccnc1-c1ccc(C#N)cn1 (stereo not shown) [P25, 3-(1-cyanocyclopropyl)-N-[1-[3-(5-cyano-2-pyridyl)pyrazin-2-yl]eth-yl]-5-(trifluoromethyl)benzamide]
≥ 80%: percent control (mortality or growth inhibition) at 200 ppm [3] | mortality at 500 ppm [7] | percent control (mortality, anti-feedant effect or growth inhibition) at 200 ppm [4] | mortality at 50 ppm [8] | percent control (mortality, anti-feedant effect or growth inhibition) at 200 ppm [5] | percent control (mortality or growth inhibition) at 200 ppm [6]

CC(NC(=O)c1cc(C(F)(F)F)cc(C(C)(C)C#N)c1)c1nccnc1-c1ccc(C#N)cn1 (stereo not shown) [P9, 3-(1-cyano-1-methyl-ethyl)-N-[1-[3-(5-cyano-2-pyridyl)pyrazin-2-yl]ethyl]-5-(trifluoromethyl)benzamide]
≥ 80%: mortality at 12 ppm [1] | percent control (mortality or growth inhibition) at 200 ppm [3] | percent control (mortality, anti-feedant effect or growth inhibition) at 200 ppm [4] | percent control (mortality, anti-feedant effect or growth inhibition) at 200 ppm [5] | percent control (mortality or growth inhibition) at 200 ppm [6]

CC(NC(=O)c1cc(C(F)(F)F)nc(C2(C#N)CC2)c1)c1nccnc1-c1ncc(OCC(F)(F)F)cn1 (stereo not shown) [P34, 2-(1-cyanocyclopropyl)-N-[1-[3-[5-(2,2,2-trifluoroethoxy)pyrimidin-2-yl]pyrazin-2-yl]ethyl]-6-(trifluoromethyl)pyridine-4-carboxamide]
≥ 80%: mortality at 12 ppm [1] | percent control (mortality or growth inhibition) at 200 ppm [2] | percent control (mortality or growth inhibition) at 200 ppm [3] | mortality at 500 ppm [7] | percent control (mortality, anti-feedant effect or growth inhibition) at 200 ppm [4] | mortality at 50 ppm [8] | percent control (mortality, anti-feedant effect or growth inhibition) at 200 ppm [5] | percent control (mortality, anti-feeding or growth inhibition) at 12.5 ppm [9] | percent control (mortality or growth inhibition) at 200 ppm [6]

CC(NC(=O)c1cc(C(F)(F)F)nc(C2(C#N)CC2)c1)c1nccnc1-c1ncc(OC(F)F)cn1 (stereo not shown) [P36, 2-(1-cyanocyclopropyl)-N-[1-[3-[5-(difluoromethoxy)pyrimidin-2-yl]pyrazin-2-yl]ethyl]-6-(trifluoromethyl)pyridine-4-carboxamide]
≥ 80%: percent control (mortality or growth inhibition) at 200 ppm [2] | percent control (mortality or growth inhibition) at 200 ppm [3] | mortality at 500 ppm [7] | percent control (mortality, anti-feedant effect or growth inhibition) at 200 ppm [4] | mortality at 50 ppm [8] | percent control (mortality, anti-feedant effect or growth inhibition) at 200 ppm [5] | percent control (mortality, anti-feeding or growth inhibition) at 12.5 ppm [9] | percent control (mortality or growth inhibition) at 200 ppm [6]

CC(NC(=O)c1cc(C(F)(F)F)nc(C2(C#N)CC2)c1)c1nccnc1-c1ncc(OCC(F)F)cn1 (stereo not shown) [P40, 2-(1-cyanocyclopropyl)-N-[1-[3-[5-(2,2-difluoroethoxy)pyrimidin-2-yl]pyrazin-2-yl]ethyl]-6-(trifluoromethyl)pyridine-4-carboxamide]
≥ 80%: mortality at 12 ppm [1] | percent control (mortality or growth inhibition) at 200 ppm [2] | percent control (mortality or growth inhibition) at 200 ppm [3] | mortality at 500 ppm [7] | percent control (mortality, anti-feedant effect or growth inhibition) at 200 ppm [4] | mortality at 50 ppm [8] | percent control (mortality, anti-feedant effect or growth inhibition) at 200 ppm [5] | percent control (mortality, anti-feeding or growth inhibition) at 12.5 ppm [9] | percent control (mortality or growth inhibition) at 200 ppm [6]

CC(NC(=O)c1cc(C2CC2)cc(C(F)(F)F)c1)c1nccnc1-c1ncc(OCC(F)F)cn1 (stereo not shown) [P37, 3-cyclopropyl-N-[1-[3-[5-(2,2-difluoroethoxy)pyrimidin-2-yl]pyrazin-2-yl]ethyl]-5-(trifluoromethyl)benzamide]
≥ 80%: mortality at 12 ppm [1] | percent control (mortality or growth inhibition) at 200 ppm [3] | mortality at 500 ppm [7] | percent control (mortality, anti-feedant effect or growth inhibition) at 200 ppm [4] | percent control (mortality, anti-feedant effect or growth inhibition) at 200 ppm [5] | percent control (mortality or growth inhibition) at 200 ppm [6]
